Entries after “also recorded” stand apart in the source; their conditions may differ.
Tested on: rat valproic acid-exposed autism model
Assay: Sociability test (3 chamber) in rat embryonic valproic acid-exposed autism model
Assay type: in vivo
Conditions: compound A 0.2 or 1 mg/kg orally once a day for 14 days from 3 weeks of age; male Sprague-Dawley offspring exposed to VPA 500 mg/kg i.p.; test at 5 weeks of age; FIG. 1
Protocol: Rat embryonic valproic acid-exposed autism model was used for the test. Sodium valproate (VPA) 500 mg/kg (mpk) was intraperitoneally administered to Sprague-Dawley pregnant rats on the 12.5th day in the embryonic stage. The offspring was weaned on the 21st day after birth, and only the male rat was used for the experiment. Compound A (0.2 or 1 mg/kg) was orally administered once a day at 18 o'clock for 14 days from 3 weeks of age after weaning and a behavioral test was conducted at 5 weeks of age. As unknown rat (Stranger rat), a purchased male rat of the same strain and the same week of age was used with no contact with the rat to be tested (test rat) until the day of the test.
In the experiment, a black plastic 3 chamber experimental apparatus (90×60×34 cm, each chamber 30×60×34 cm) was used. […]
On the day of the test, the rats to be tested and unknown rats were acclimated to the test environment for 1 hour or more and then the test was started. […] The sniffing to each cylinder (action of sniffing an object or an animal) was visually measured for 10 min. A sniffing index, which is an indicator of interest to other animal, was calculated by the following formula based on the sniffing time to each cylinder for 10 min. […]

Compound: CC(=O)NCC[C@@H]1CCc2ccc3nc(C)oc3c21 [compound A, (S)—N-[2-(2-methyl-7,8-dihydro-6H-indeno[5,4-d][1,3]oxazol-8-yl)ethyl]acetamide]
- effect on social disorder / social performance (Sniffing index, Sniffing time to object): significant (# P≤0.025) improvement effect on social performance; also recorded: showed effectiveness on the social disorder

Source: patent publication US10759768B2, “Prophylactic or therapeutic agent for autism spectrum disorder” (priority 2016, dated 2020)
